Assay results taken from the supplement of paper PMC9013687.
± gives the standard deviation of the averaged measurements.

How the values were obtained:
Danio rerio embryo [1] = test: EC50 Eye-jaw distance_Decrease; conditions: exposure time: 4 dpf
Experimental: (§1)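 Zebrafish embryos (UFZ-OBI strain) were exposed from 2 hpf for 48 h (2 dpf) or 96 h (4 dpf) at 28 °C; spontaneous tail coiling was scored at 25 hpf. Morphological features from automated image analysis (FishInspector), heart rate and locomotor response were fitted with drc models. Quantal endpoints were dichotomised at 2.5 SD from controls and fitted with a log-logistic model; heart rate, pigmentation and STC were normalised to the replicate control mean. Betamethasone was tested as betamethasone dipropionate, diflorasone as diflorasone diacetate.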

Danio rerio embryo [2] = test: EC10 Eye-jaw distance_Decrease; higher = less potent; conditions: exposure time: 4 dpf
Experimental: as §1

Danio rerio embryo [3] = test: EC20 Pigmentation decrease; higher = less potent; conditions: exposure time: 4 dpf
Experimental: as §1

Danio rerio embryo [4] = system: Danio rerio embryo
Experimental: as §1

Danio rerio embryo [5] = test: EC20 Pericard size_Increase; higher = less potent
Experimental: as §1

Danio rerio embryo [6] = test: EC20 Any effect; higher = less potent
Experimental: as §1

Danio rerio embryo [7] = test: EC10 Pigmentation decrease; higher = less potent; conditions: exposure time: 4 dpf
Experimental: as §1

Danio rerio embryo [8] = test: EC10 Any effect; higher = less potent; conditions: exposure time: 2 dpf
Experimental: as §1

Danio rerio embryo [9] = test: EC10 Pericard size_Increase; higher = less potent
Experimental: as §1

Danio rerio embryo [10] = test: EC50 Pericard size_Increase
Experimental: as §1

Danio rerio embryo [11] = test: spontaneous tail coiling frequency (coils/min/embryo); higher = more spontaneous movement; conditions: 25 hpf
Experimental: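 Spontaneous tail coilings of zebrafish embryos exposed from 2 hpf were recorded at 24-25 hpf in 1-min videos and detected by a KNIME workflow from grey-value variance. Betamethasone was tested as the dipropionate, diflorasone as the diacetate.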

Danio rerio embryo [12] = test: EC20 Eye-jaw distance_Decrease; higher = less potent; conditions: exposure time: 4 dpf
Experimental: as §1

Danio rerio embryo [13] = test: EC10 Lack of SB; higher = less potent; conditions: exposure time: 4 dpf
Experimental: as §1

Danio rerio embryo [14] = test: EC50 Bladder size_Decrease; conditions: exposure time: 4 dpf
Experimental: as §1

Danio rerio embryo [15] = test: EC20 Bladder size_Decrease; higher = less potent; conditions: exposure time: 4 dpf
Experimental: as §1

Danio rerio embryo [16] = test: EC10 Bladder size_Decrease; higher = less potent; conditions: exposure time: 4 dpf
Experimental: as §1

Danio rerio embryo [17] = conditions: exposure time: 4 dpf
Experimental: as §1

Danio rerio embryo [18] = test: EC20 Lack of SB; higher = less potent; conditions: exposure time: 4 dpf
Experimental: as §1

CCC(=O)OCC(=O)[C@@]1(OC(=O)CC)[C@@H](C)C[C@H]2[C@@H]3CCC4=CC(=O)C=C[C@]4(C)[C@@]3(F)[C@@H](O)C[C@@]21C [betamethasone dipropionate]
Conditions | EC10 Any effect [nM] | EC10 Eye-jaw distance Decrease [nM] | EC10 Pigmentation decrease [nM] | EC20 Eye-jaw distance Decrease [nM] | EC20 Pigmentation decrease [nM] | EC50 Eye-jaw distance Decrease [nM]
Danio rerio embryo [1] | – | – | – | – | – | 13100
Danio rerio embryo [2] | – | 3 | – | – | – | –
Danio rerio embryo [3] | – | – | – | – | 8440 | –
Danio rerio embryo [7] | – | – | 1610 | – | – | –
Danio rerio embryo [8] | 0.192 | – | – | – | – | –
Danio rerio embryo [12] | – | – | – | 64 | – | –

Conditions | EC10 Pericard size Increase [nM] | EC20 Any effect [nM] | EC20 Pericard size Increase [nM] | EC50 Any effect [nM] | EC50 Pericard size Increase [nM] | spontaneous tail coiling frequency
Danio rerio embryo [4], exposure time: 2 dpf | – | – | – | 882 | – | –
Danio rerio embryo [4], exposure time: 4 dpf | – | – | – | 253 | – | –
Danio rerio embryo [5], exposure time: 2 dpf | – | – | 437 | – | – | –
Danio rerio embryo [5], exposure time: 4 dpf | – | – | 0.209 | – | – | –
Danio rerio embryo [6], exposure time: 2 dpf | – | 4.31 | – | – | – | –
Danio rerio embryo [6], exposure time: 4 dpf | – | 0.298 | – | – | – | –
Danio rerio embryo [9], exposure time: 2 dpf | 70 | – | – | – | – | –
Danio rerio embryo [10], exposure time: 2 dpf | – | – | – | – | 10100 | –
Danio rerio embryo [10], exposure time: 4 dpf | – | – | – | – | 1350 | –
Danio rerio embryo [11], 0.02 µM | – | – | – | – | – | 2.32
Danio rerio embryo [11], 0.099 µM | – | – | – | – | – | 1.86
Danio rerio embryo [11], 0.198 µM | – | – | – | – | – | 2.45
Danio rerio embryo [11], 0.991 µM | – | – | – | – | – | 3.42
Danio rerio embryo [11], 1.24 µM | – | – | – | – | – | 3.65 ± 0.45
Danio rerio embryo [11], 2.48 µM | – | – | – | – | – | 4 ± 0.071
Danio rerio embryo [11], 3.964 µM | – | – | – | – | – | 2.3
Danio rerio embryo [11], 4.95 µM | – | – | – | – | – | 3.4 ± 0.27
Danio rerio embryo [11], 9.909 µM | – | – | – | – | – | 1.97
Danio rerio embryo [11], 9.91 µM | – | – | – | – | – | 3.29 ± 0.34
Danio rerio embryo [11], 19.82 µM | – | – | – | – | – | 3.34 ± 0.88

CC(=O)OCC(=O)[C@@]1(OC(C)=O)[C@@H](C)C[C@H]2[C@@H]3C[C@H](F)C4=CC(=O)C=C[C@]4(C)[C@@]3(F)[C@@H](O)C[C@@]21C [diflorasone diacetate]
Conditions | EC10 Bladder size Decrease [nM] | EC10 Eye-jaw distance Decrease [nM] | EC10 Lack of SB [nM] | EC20 Bladder size Decrease [nM] | EC20 Eye-jaw distance Decrease [nM] | EC20 Lack of SB [nM] | EC50 Bladder size Decrease [nM] | EC50 Eye-jaw distance Decrease [nM] | EC50 Lack of SB [nM]
Danio rerio embryo [1] | – | – | – | – | – | – | – | 2380 | –
Danio rerio embryo [2] | – | 4 | – | – | – | – | – | – | –
Danio rerio embryo [12] | – | – | – | – | 41 | – | – | – | –
Danio rerio embryo [13] | – | – | 45 | – | – | – | – | – | –
Danio rerio embryo [14] | – | – | – | – | – | – | 176 | – | –
Danio rerio embryo [15] | – | – | – | 66 | – | – | – | – | –
Danio rerio embryo [16] | 37 | – | – | – | – | – | – | – | –
Danio rerio embryo [17] | – | – | – | – | – | – | – | – | 379
Danio rerio embryo [18] | – | – | – | – | – | 99 | – | – | –

Conditions | EC10 Pericard size Increase [nM] | EC20 Pericard size Increase [nM] | EC50 Pericard size Increase [nM] | spontaneous tail coiling frequency
Danio rerio embryo [5], exposure time: 4 dpf | – | 127 | – | –
Danio rerio embryo [9], exposure time: 4 dpf | 25 | – | – | –
Danio rerio embryo [10], exposure time: 4 dpf | – | – | 2080 | –
Danio rerio embryo [11], 0.63 µM | – | – | – | 2.46
Danio rerio embryo [11], 1.2 µM | – | – | – | 2.87
Danio rerio embryo [11], 1.26 µM | – | – | – | 2.52
Danio rerio embryo [11], 2 µM | – | – | – | 2.33
Danio rerio embryo [11], 2.5 µM | – | – | – | 2.17
Danio rerio embryo [11], 3 µM | – | – | – | 1.89
Danio rerio embryo [11], 4 µM | – | – | – | 2.36
Danio rerio embryo [11], 6 µM | – | – | – | 2.7
Danio rerio embryo [11], 10.1 µM | – | – | – | 1.56
